One compound from ChEMBL document CHEMBL4828771, “Discovery and Development of a Potent, Selective, and Orally Bioavailable CHK1 Inhibitor Candidate: 5-((4-((3-Amino-3-methylbutyl)amino)-5-(trifluoromethyl)pyrimidin-2-yl)amino)picolinonitrile” (J Med Chem, 2021) can be followed below.

Active and inactive are the calls of the source. No cut-off for these calls is given here.

One may read the IC50 as the point on the concentration scale where inhibition reaches its midpoint. By Tmax is commonly meant the time from dosing to the highest level. One may read the T/C as the result in the treated group divided by that in the control group, in per cent. What is called Cmax is the peak of the concentration-time curve. As a reminder, the inhibition is the relative decrease from the control value, in per cent. One may read the AUC(0-inf) as total exposure, with the tail of the curve extrapolated. Usually MRT inf stands for a mean duration of stay, worked out from the concentration-time curve.

Data set [1] addresses T1, Serine/threonine-protein kinase Chk1 (Homo sapiens, UniProt O14757).
T1 sequence (O14757 whole entry): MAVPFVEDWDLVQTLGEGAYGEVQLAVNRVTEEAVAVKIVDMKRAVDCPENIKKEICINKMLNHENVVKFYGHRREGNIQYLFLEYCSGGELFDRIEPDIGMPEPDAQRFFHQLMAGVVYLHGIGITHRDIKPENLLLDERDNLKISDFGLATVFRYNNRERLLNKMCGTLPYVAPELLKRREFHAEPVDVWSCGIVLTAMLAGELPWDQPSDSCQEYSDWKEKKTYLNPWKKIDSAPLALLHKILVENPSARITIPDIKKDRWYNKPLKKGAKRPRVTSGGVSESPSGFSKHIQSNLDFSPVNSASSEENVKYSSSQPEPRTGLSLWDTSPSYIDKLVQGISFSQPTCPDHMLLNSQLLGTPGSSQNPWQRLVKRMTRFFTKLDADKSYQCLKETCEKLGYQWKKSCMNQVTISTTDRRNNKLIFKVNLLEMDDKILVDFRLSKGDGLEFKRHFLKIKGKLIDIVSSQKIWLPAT
Put plainly: Inhibition of CHK1 (unknown origin) incubated for 1 hr in presence of ATP by HTRF assay. A general note: TR-FRET usually uses a lanthanide donor and a delayed reading to cut background.

The target of data set [2] is T2, Serine/threonine-protein kinase DCLK3 (Homo sapiens) (UniProt Q9C098).
T2 sequence (whole entry): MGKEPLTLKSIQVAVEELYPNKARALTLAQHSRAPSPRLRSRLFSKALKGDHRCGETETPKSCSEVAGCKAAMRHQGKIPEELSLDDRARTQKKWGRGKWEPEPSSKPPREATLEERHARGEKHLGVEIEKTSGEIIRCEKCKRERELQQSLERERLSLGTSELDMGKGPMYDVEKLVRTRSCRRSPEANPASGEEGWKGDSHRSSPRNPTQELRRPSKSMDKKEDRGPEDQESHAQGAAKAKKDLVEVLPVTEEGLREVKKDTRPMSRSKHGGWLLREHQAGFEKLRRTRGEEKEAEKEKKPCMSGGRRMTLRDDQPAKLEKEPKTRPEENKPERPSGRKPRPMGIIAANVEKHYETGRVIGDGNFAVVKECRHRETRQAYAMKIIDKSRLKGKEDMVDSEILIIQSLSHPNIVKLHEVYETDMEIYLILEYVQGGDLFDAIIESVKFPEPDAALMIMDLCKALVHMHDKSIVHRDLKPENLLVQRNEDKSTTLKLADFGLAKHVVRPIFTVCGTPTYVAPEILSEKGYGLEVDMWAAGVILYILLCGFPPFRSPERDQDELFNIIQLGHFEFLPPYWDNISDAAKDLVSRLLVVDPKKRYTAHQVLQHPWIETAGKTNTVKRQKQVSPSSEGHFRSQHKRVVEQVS
Put plainly: Inhibition of wild type human DCAMKL3 (M1 to G289 residue) expressed in bacterial expression system assessed as protein activity at 0.5 uM relative to control. More on the design: scale not given: the % may be the effect or the level left.

The next data set concerns RPMI-8226. The data set can be described thus: Antiproliferative activity against human RPMI-8226 cells incubated for 72 hrs by CCK8 assay. Format: functional, cell-based. In general terms: Tetrazolium assays rely on reduction of a dye to a coloured formazan, in cell work by metabolically active cells.
Data set [3] is described as follows: Selectivity ratio of Antiproliferative activity against human RPMI-8226 cells to Antiproliferative activity against human RPMI-8226 cells in presence of gemcitabine. Format: functional.
Data set [4] relates to MV4-11. Put plainly: Antitumor activity against human MV4-11 cells xenografted in po dosed mouse assessed as inhibition of tumor growth administered for 21 days measured twice every week relative to control. Format: functional, organism-based. Conditions: time 21.0 day. (In general: In xenograft studies the graft and the host belong to different species.)
Data set [5] is described as follows: Tmax in ICR mouse at 20 mg/kg, po measured after 0.083 to 48 hrs by LC-MS/MS analysis. The note with it: in vivo, time 0.083-48 hrs. Format: ADME, organism-based.
For data set [6], the system named is Mus musculus. Put plainly: Induction of S296 phosphorylation in tumor of mouse xenografted with human HT-29 cells at 30 mg/kg, po dosed 5 days/week for 22 days cotreated with gemcitabine by Western blot analysis. The note with it: time 22.0 day. Format: functional, organism-based.
Data set [7] has as its system HT-29. Put plainly: Antitumor activity against human HT-29 cells xenografted in mouse assessed as reduction in tumor growth by measuring T/C ratio at 30 mg/kg, po cotreated with gemcitabine dosed 5 days/week for 22 days measured twice every week. Format: functional. Conditions: time 22 day.
In data set [8] the test system is MV4-11. The data set can be described thus: Antiproliferation activity against human MV4-11 cells assessed as reduction in cell viability incubated for 72 hrs by MTS assay. Format: functional, cell-based. The note with it: MV4-11, 72 h.
Data set [9] relates to MV4-11. The data set can be described thus: Antitumor activity against human MV4-11 cells xenografted in mouse assessed as inhibition of tumor growth at 15 mg/kg, po dosed for 21 days measured twice every week relative to control. Format: functional. Conditions: MV4-11, po, 504 h, time 21 day, read-out: TGI.
Data set [10] in a line: Cmax in ICR mouse at 20 mg/kg, po measured after 0.083 to 48 hrs by LC-MS/MS analysis. Format: ADME, organism-based. Also on record: route oral, time upper 48 hrs, time lower 0.083 hrs, dose 20 mg/kg. Conditions: in vivo.
Data set [11] addresses T3, Serine/threonine-protein kinase Chk1 (Homo sapiens) (UniProt O14757).
T3 sequence (whole entry): T1 sequence (O14757 whole entry)
The data set can be described thus: Inhibition of CHK1 in human MV4-11 cells assessed as reduction in autophosphorylation at S296 residue incubated for 2 hrs by Western blot analysis. Format: cell-based.

For another data set, the target named is hERG (KCNH2) (Homo sapiens, UniProt Q12809). Put plainly: Inhibition of human ERG expressed in HEK293 cells at 10 uM by patch-clamp technique relative to control. Format: cell-based. The note with it: HEK293 cells that express hERG.
Chain of hERG (KCNH2) (Q12809 whole entry): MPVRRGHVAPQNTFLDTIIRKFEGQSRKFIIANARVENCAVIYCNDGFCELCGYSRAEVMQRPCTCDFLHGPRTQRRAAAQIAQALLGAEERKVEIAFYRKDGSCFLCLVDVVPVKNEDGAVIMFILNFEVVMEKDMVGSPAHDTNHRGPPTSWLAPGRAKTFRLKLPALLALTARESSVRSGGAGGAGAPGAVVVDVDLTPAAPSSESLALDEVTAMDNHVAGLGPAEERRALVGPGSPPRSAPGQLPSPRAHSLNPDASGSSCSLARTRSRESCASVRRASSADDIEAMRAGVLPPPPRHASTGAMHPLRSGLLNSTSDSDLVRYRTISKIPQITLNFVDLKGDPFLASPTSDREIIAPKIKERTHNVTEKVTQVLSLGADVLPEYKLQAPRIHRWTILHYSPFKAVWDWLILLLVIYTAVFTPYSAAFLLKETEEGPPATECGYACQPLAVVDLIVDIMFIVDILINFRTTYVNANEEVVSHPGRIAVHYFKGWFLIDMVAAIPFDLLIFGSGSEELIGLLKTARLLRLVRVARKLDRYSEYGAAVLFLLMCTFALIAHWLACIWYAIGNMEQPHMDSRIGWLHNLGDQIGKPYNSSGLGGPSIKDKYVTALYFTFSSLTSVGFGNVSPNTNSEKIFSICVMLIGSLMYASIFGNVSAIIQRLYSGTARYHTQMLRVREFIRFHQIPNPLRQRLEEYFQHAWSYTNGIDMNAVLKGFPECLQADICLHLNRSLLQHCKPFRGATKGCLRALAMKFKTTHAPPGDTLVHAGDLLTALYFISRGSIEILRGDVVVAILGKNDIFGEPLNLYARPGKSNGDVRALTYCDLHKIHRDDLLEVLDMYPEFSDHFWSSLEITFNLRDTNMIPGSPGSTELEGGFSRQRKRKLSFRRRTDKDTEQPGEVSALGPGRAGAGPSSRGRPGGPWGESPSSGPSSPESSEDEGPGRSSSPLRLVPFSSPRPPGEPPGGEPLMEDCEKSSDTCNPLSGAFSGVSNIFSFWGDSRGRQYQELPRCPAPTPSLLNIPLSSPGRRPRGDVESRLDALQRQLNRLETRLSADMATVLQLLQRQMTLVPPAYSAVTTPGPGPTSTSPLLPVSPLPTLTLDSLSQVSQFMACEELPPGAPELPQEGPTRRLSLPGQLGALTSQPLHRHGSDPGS
Data set [12] has as its system A549. The data set can be described thus: Antiproliferative activity against human A549 cells incubated for 72 hrs in presence of gemcitabine by CCK8 assay. Format: functional, cell-based.
Data set [13] has as its target Ribosomal protein S6 kinase alpha-3 (Homo sapiens) (UniProt P51812). Put plainly: Inhibition of wild type human RSK2 expressed in mammalian expression system assessed as protein activity at 0.5 uM relative to control. More on the design: scale not given: the % may be the effect or the level left.
Data set [14] has as its system HT-29. Put plainly: Induction of gamma-H2A.X in human HT-29 cells at 0.12 to 3.3 uM incubated for 12 hrs in presence of gemcitabine by Western blot analysis. Format: functional, cell-based. Conditions: dose 0.12-3.3 µM.
Data set [15] is described as follows: AUC (0 to infinity) in ICR mouse at 20 mg/kg, po measured after 0.083 to 48 hrs by LC-MS/MS analysis. Format: ADME, organism-based. Also on record: route oral, time upper 48 hrs, time lower 0.083 hrs, dose 20 mg/kg. Conditions: in vivo.
The subject of data set [16] is A549. The data set can be described thus: Antiproliferative activity against human A549 cells incubated for 72 hrs by CCK8 assay. Format: functional, cell-based.
Data set [17] addresses T3, Serine/threonine-protein kinase Chk1 (Homo sapiens). The data set can be described thus: Inhibition of CHK1 in human HT-29 cells assessed as […] residue at 0.12 to 3.3 uM incubated for 12 hrs in presence of gemcitabine by Western blot analysis. Format: cell-based. Conditions: dose 0.12-3.3 µM.
A short description of data set [18]: Selectivity ratio of Antiproliferative activity against human A549 cells to Antiproliferative activity against human A549 cells in presence of gemcitabine. Format: functional.
Data set [19] concerns the target Calcium/calmodulin-dependent protein kinase type II subunit delta (Homo sapiens) (UniProt Q13557). Put plainly: Inhibition of wild type human CAMK2D (M1 to E329 residues) expressed in bacterial expression system assessed as protein activity at 0.5 uM relative to control. Also on record: scale not given: the % may be the effect or the level left.
Data set [20] deals with HT-29. The data set can be described thus: Antiproliferative activity against human HT-29 cells incubated for 72 hrs by CCK8 assay. Format: functional, cell-based.
Data set [21] is described as follows: MRT (0 to infinity) in ICR mouse at 20 mg/kg, po measured after 0.083 to 48 hrs by LC-MS/MS analysis. Conditions: in vivo, time 0.083-48 hrs. Format: ADME, organism-based.
In data set [22] the test system is Mus musculus. The data set can be described thus: Downregulation of S296 phosphorylation in tumor of mouse xenografted with human HT-29 cells at 30 mg/kg, po dosed 5 days/week for 22 days by Western blot analysis. Conditions: time 22.0 day. Format: functional, organism-based.

Chain of Ribosomal protein S6 kinase alpha-3 (Homo sapiens) (P51812 whole entry): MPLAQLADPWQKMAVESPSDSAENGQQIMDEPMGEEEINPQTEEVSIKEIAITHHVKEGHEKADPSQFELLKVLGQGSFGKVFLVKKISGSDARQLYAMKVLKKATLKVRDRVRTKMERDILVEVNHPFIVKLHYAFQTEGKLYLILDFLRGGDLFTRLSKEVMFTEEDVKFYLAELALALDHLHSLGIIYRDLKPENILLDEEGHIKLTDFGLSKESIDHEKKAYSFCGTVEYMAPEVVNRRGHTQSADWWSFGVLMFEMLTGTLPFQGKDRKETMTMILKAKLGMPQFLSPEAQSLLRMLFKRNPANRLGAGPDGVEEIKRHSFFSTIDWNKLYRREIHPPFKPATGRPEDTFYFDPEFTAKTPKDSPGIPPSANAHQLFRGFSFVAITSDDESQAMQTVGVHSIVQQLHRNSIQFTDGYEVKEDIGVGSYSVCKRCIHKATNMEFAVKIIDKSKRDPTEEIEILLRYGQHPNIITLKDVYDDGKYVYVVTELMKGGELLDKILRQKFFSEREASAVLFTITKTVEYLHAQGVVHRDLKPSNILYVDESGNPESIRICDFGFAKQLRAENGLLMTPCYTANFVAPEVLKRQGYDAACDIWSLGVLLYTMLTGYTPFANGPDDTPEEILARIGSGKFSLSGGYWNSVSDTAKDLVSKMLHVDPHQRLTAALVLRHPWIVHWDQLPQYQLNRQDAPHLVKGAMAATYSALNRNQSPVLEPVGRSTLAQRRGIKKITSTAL
Chain of Calcium/calmodulin-dependent protein kinase type II subunit delta (Homo sapiens) (Q13557 whole entry, the tested form may be a part): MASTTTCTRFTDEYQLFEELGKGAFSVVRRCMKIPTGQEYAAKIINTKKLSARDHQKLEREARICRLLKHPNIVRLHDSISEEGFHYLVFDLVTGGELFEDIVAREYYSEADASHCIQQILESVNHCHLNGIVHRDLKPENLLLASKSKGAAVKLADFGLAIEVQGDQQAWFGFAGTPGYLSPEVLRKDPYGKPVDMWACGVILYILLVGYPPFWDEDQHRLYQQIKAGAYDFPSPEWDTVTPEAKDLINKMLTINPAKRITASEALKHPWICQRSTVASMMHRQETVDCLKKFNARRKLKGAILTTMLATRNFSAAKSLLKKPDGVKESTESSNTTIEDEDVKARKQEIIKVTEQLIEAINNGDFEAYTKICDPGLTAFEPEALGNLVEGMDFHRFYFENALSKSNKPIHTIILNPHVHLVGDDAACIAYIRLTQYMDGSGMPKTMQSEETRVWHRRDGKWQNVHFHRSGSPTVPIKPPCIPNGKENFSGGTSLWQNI

Take `CC(C)(N)CCNc1nc(Nc2ccc(C#N)nc2)ncc1C(F)(F)F`: the IC50 in data set [1] came to 16.1 nM; in the data set with MV4-11 [8], 140 nM. For the same compound, the Activity in data set [2] was 7%; in the data set on MV4-11 [4] it was “Dose-Dependent Effect”; in data set [13], 13%; in data set [19], 19%. In addition, the outcome (with RPMI-8226; in the data set on Mus musculus [6]; in the data set with A549 [12]; in the data set on HT-29 [14]; in the data set on A549 [16]; in data set [17]) was Active. Moreover, the result in the data set on HT-29 [20] and with Mus musculus [22] was Active. Also, the Ratio in data set [3] and in data set [18] was 100 throughout. Further, the Tmax in [5] was 4 h. Also, the T/C in the data set with HT-29 [7] is 11.99%. Further, in the data set with MV4-11 [9], the inhibition in vivo at 15 mg/kg worked out at 95.5%. Moreover, the Cmax in data set [10] is 1450 ng/mL. Further, in [11], the inhibition result is “Dose-Dependent Effect”. On hERG (KCNH2), the inhibition at 10 µM is 35.5%. The same compound returned an AUC(0-inf) in data set [15] of 22700 ng·h/mL. This compound also yielded an MRT inf in data set [21] of 14.7 h.
